From patent publication US7169411B1, “Composition for delivery of biological agents and methods for the preparation thereof” (The University of Nebraska Board of Regents, priority 1997, dated 2007) come the findings set out here.

This data set can be described thus: Potentiometric binding isotherms of surfactants to polyethylene oxide-block-poly(sodium methacrylate). Format: physicochemical. The following applies: FIG. 1. The text has this: While not wishing to be bound by any particular theory, it is believed that the above-described surfactants and block copolymers of opposite charge form stable complexes due to cooperative binding. (See, e.g., Goddard, In Interactions of Surfactants with Polymers and Proteins. Goddard and Ananthapadmanabhan, Eds., pp. 171 et seq., CRC Press, Boca Raton, Ann Arbor, London, Tokyo, 1992). Cooperative binding occurs in the sense that binding of surfactant molecules to the block copolymer is enhanced by the presence of other molecules of the same or a different surfactant already bound to the same copolymer. According to the cooperative binding mechanism which is believed to underlie this invention, surfactant binds electrostatically to the oppositely charged P-type segments of the block copolymer to form supramolecular complexes. […]
B. The binding isotherms of cetylpyridinium bromide (Sigma Co.) and dodecylpyridinium bromide (Sigma Co.) with the polyethylene oxide-block-poly(sodium methacrylate) copolymer were determined potentiometrically by using the following ion-selective electrode: Ag/AgCl | 1 M NH4NO3 agar bridge | reference solution (surfactant, 2.5·10^−4 M) | PVC membrane | sample solution | 1 M NH4NO3 agar bridge | Ag/AgCl. […] The electromotive force (emf) of the cell was measured with a digital Radiometer pHM-83 pH-meter. […]

For `CCCCCCCCCCCC[n+]1ccccc1.[Br-]` [dodecylpyridinium bromide], the “stability of the complex with the block copolymer relative to cetylpyridinium bromide” value was “decreases the stability of the complex more than ten-fold”.
